Measurements from patent US10093675B2, “6,8-disubstituted-9-(heterocyclyl)purines, compositions containing these derivatives and their use in cosmetic and medicinal applications” (USTAV EXPERIMENTALNI BOTANIKY AV CR, V.V.I., priority 2014, dated 2018).
Like-named read-outs stand apart in the source and are kept apart here.

How the values were obtained:
[1] = Radical scavenging activity determined by ORAC (Oxygen Radical Absorbance Capacity); format: biochemical; settings: Mean ± SD (n = 3); net area under the curve relative to trolox, equimolar basis
Experimental: The ability of compounds to scavenge free radicals in vitro was determined by Oxygen Radical Absorbance Capacity (ORAC) method. Fluorescein (100 μL, […]) and 25 μL of compound solution were added into each working well in a 96-well microplate preincubated at 37° C. Thereafter, 25 μL of 250 mM AAPH was quickly added, microplate was shaken for 5 s and the fluorescence (Ex. 485 nm, Em. 510 nm) was read every 3 min over 90 min by using microplate reader Infinite 200 (TECAN, Switzerland). The net area under the curve was used to express antioxidant activity relative to trolox which was used as a standard.

[2] = system: detached leaves of Triticum aestivum cv. Hereward; assay: Membrane lipid peroxidation (MDA, TBA method) in detached wheat leaves during dark senescence; format: in vivo; settings: four days in the dark, Control 18.9 (±2.2)
Experimental: A typical symptom associated with senescence as a direct consequence of increased reactive oxygen species is lipid peroxidation. Therefore the levels of MDA, a decomposition product of lipid peroxidation, were measured in detached wheat leaves that were exposed to the prepared novel derivatives and kinetin for four days in the dark as described in Example 8. MDA levels were measured using a thiobarbituric acid (TBA) method. In detail, 100 mg of fresh plant material was homogenized by high speed shaking in a ball mill (MM301, Retsch, Germany) with 1 mL of 80% methanol. The crude extract was centrifuged at 10,000×g for 5 min, and 100 μL aliquot of supernatant was vortexed with 100 μL of 0.5% (w/v) TBA containing 0.1% (w/v) trichloroacetic acid, and the resulting solution was then incubated for 30 min at 95° C. The samples were quickly cooled on ice and recentrifuged for 5 min at 1000×g. The absorbance of supernatant was measured at 532 nm with background subtraction at 600 nm and the amount of MDA-TBA complex was calculated from the coefficient of absorbance 155 mM^−1cm^−1.
Seeds of winter wheat, Triticum aestivum cv. Hereward, were washed under running water for 24 hours and then sown on vermiculite soaked with Knop's solution. They were placed in the grown chamber at 25° C. with a 16/8 hours light period at […]. After 7 days, the first leaf was fully developed and the second leaf had started to grow. A tip section of the first leaf, approximately 35 mm long, was removed from 5 seedlings and trimmed slightly to a combined weight of 100 mg. The basal ends of the five leaf tips were placed in the wells of a microtiter polystyrene plate containing […] of a cytokinin solution each. The entire plate was inserted into a plastic box lined with paper tissues soaked in distilled water to prevent leaf sections from drying out. After 96 hours incubation in the dark at 25° C., the leaves were removed and chlorophyll extracted by heating at 80 C for 10 min in 5 ml of 80% ethanol (v/v). The sample volume was then restored to 5 ml by the addition of 80% ethanol (v/v). The absorbance of the extract was recorded at 665 nm. In addition, chlorophyll extracts from fresh leaves and leaf tips incubated in deionized water were measured. From the obtained data, the concentration with highest activity was selected for each compound tested. Relative activity of the compound at this concentration was calculated (see Table 6 below). The activity obtained for 10^−4 M kinetin (Kin) was set as 100%. The values shown are means of five replicates and the whole experiment was repeated twice.

[3] = system: human diploid fibroblasts (HDF cells; HDF25, HDF45, HDF80); assay: Inhibition of human cell aging: senescent cells by beta-galactosidase staining; format: cell-based
Experimental: In this example, human diploid fibroblasts (HDF cells of various passage levels: passage 25—designated HDF25; passage 45—designated HDF45; passage 80—designated HDF80) were stained for beta-galactosidase activity. The medium used for the cell cultivation was removed the cells were washed twice in […], and fixed in 2-3 ml of fixing solution comprised of a 2% formaldehyde and 0.2% glutaraldehyde in PBS. The cells were incubated at room temperature for 5 minutes, and then washed twice with PBS. The cells were subsequently incubated at 37° C. […] In this experiment, senescent cells, but no other cells were stained blue due to the action of beta-galactosidase on the substrate.

[4] = system: excised wheat leaf tips (Triticum aestivum cv. Hereward); assay: Senescence inhibition on winter wheat leaf segments (retention of chlorophyll); format: in vivo; settings: 10^−4 mol/L; 96 hours in the dark; activity of kinetin set at 100%
Method in brief: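 First-leaf tips from 7-day-old wheat seedlings stood with their bases in test solution for 96 h in the dark at 25° C. Chlorophyll was then extracted in hot 80% ethanol and read at 665 nm. Activity at each compound's best concentration is relative to 10^−4 M kinetin (100%), as means of five replicates.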

[5] = system: Human diploid fibroblast BJ; assay: In vitro cytotoxic activity (MTT); format: cell-based; settings: 72 hours incubation; concentration causing 20% decrease in mitochondrial dehydrogenase activity
Experimental: MTT (metabolic tetrazolium toxicity) assay is a standard colorimetric assay for evaluation of cytotoxicity. Mitochondrial dehydrogenase activity converts yellow MTT into violet formazan which is measured by means of spectrometry.
Human diploid fibroblast BJ (passage 18-22) were seeded into 96-well plate (5.000 cells per well). After 6 hours cultivation medium (DMEM with 5 g/l glucose, 2 mM glutamine, 100 U/ml penicillin, 100 mmg/ml streptomycin, 10% fetal calf serum and sodium bicarbonate) was replaced with the cultivation medium containing test compounds in concentration range of 0-200 µM. Highest concentration was adjusted if the solubility of the compound was limiting. Every concentration was tested in pentaplicate. MTT was added to the cells after 72 hours incubation (final concentration 0.5 mg/ml) and incubation continued for another 3 hours. MTT was solubilised by DMSO and absorbance at 570 nm was measured. Growth inhibition (GI) was estimated using the following equitation: GI=(mean A drug exposed wells−mean Ablank/mean Acontrol wells−mean Ablank)×100%. The GI20 value, the drug concentration causing 20% decrease in mitochondrial dehydrogenase activity, was calculated from the obtained dose response curves.

[6] = system: normal diploid fibroblasts BJ; assay: In vitro cytotoxic activity (Calcein AM), BJ; format: cell-based, human; settings: 72 hours, read-out: Cell line tested/IC50 (μmol/L) BJ
Description: (§1) Because toxic compounds negatively influence metabolic processes of cells, many standard cytotoxicity assays are based on measurement of metabolisation rate of various artificial substrates. Resulting product is then quantified, for example, by means of spectrometry. The assays can be easily modified for use in 96-well plates. For evaluation of cytotoxicity of the […] of this invention, a microtiter assay based on quantification of metabolisation of Calcein AM was used. The assay is widely used in drug screening programs and in chemosensitivity testing. In live cells, Calcein AM is enzymatically hydrolysed and accumulation of resulting calcein is manifested by green fluorescence.
(§2) The following human cell lines were used for routine screening of the compounds: normal diploid fibroblasts BJ, T-lymphoblastic leukemia cell line CEM, promyelocytic leukemia cell line HL-60, erytroid leukemia cell line K-562, breast carcinoma cell line MCF-7, osteosarcoma cell line HOS and melanoma cell line G-361. The cells were maintained in Nunc/Corning 80 cm^2 plastic tissue culture flasks and cultured in cell culture medium (DMEM with 5 g/l glucose, 2 mM glutamine, 100 U/ml penicillin, 100 mmg/ml streptomycin, 10% fetal calf serum and sodium bicarbonate). The cell suspensions were prepared and diluted according to the particular cell type and the expected target cell density (2.500-30.000 cells per well based on cell growth characteristics) and pipetted (80 μl) into 96-well plates. Inoculates were allowed a pre-incubation period of 24 hours at 37° C. and 5% CO2 for stabilization. Tested compound was added in total volume of 20 μl of water at time zero. Usually, test compound was evaluated at six 3-fold dilutions. In routine testing, the highest concentration tested was 100 μM, but it could have been adjusted because of limited solubility of a compound. All drug concentrations were tested in triplicates.
(§3) Incubations of cells with the test compounds lasted for 72 hours at 37° C., in 5% CO2 atmosphere and 100% humidity. At the end of incubation period Calcein AM in PBS was added into final concentration of 1 μg/ml. After another 1 hour of incubation fluorescence (FD) was measured with the Labsystem FIA Reader Fluoroscan Ascent (UK). Growth inhibition (GI) was estimated using the following equitation: GI=(mean FDdrug exposed wells−mean FDblank)/(mean FDcontrol wells−mean FDblank)×100%. The GI50 value, the drug concentration causing 50% reduction of Calcein AM conversion, was calculated from the obtained dose response curves.

melanoma cell line G-361 = assay: In vitro cytotoxic activity (Calcein AM), G-361; format: cell-based, human; settings: read-out: Cell line tested/IC50 (μmol/L) G-361
Description: as §1, §2, §3

[7] = system: osteosarcoma cell line HOS; assay: In vitro cytotoxic activity (Calcein AM), HOS; format: cell-based, human; settings: 72 hours, read-out: Cell line tested/IC50 (μmol/L) HOS
Description: as §1, §2, §3

[8] = system: cytokinin-dependent tobacco callus Nicotiana tabacum L. cv. Wisconsin 38; assay: Plant cell division: growth of cytokinin-dependent tobacco callus; format: cell-based; settings: for Activity (%); (s.d.): relative activity at concentration with highest activity, 10^−6 M kinetin set at 100%; for Concentration with highest activity (mol/l): tobacco callus fresh weight increase after four weeks, tested 10^−8 M to 10^−4 M
[9] = system: erytroid leukemia cell line K-562; assay: In vitro cytotoxic activity (Calcein AM), K-562; format: cell-based, human; settings: read-out: Cell line tested/IC50 (μmol/L) K-562
Description: as §1, §2, §3

[10] = system: breast carcinoma cell line MCF-7; assay: In vitro cytotoxic activity (Calcein AM), MCF-7; format: cell-based, human; settings: read-out: Cell line tested/IC50 (μmol/L) MCF7
Description: as §1, §2, §3

[11] = system: T-lymphoblastic leukemia cell line CEM; assay: In vitro cytotoxic activity (Calcein AM), CEM; format: cell-based, human; settings: 72 hours, read-out: Cell line tested/IC50 (μmol/L) CEM
Description: as §1, §2, §3

SMILES | ORAC (compound/trolox ratio) [1] | MDA (nmol/g FW) [2] | Activity (%) (s.d.), retention of chlorophyll [4] | GI20 [5] | IC50 [6] | IC50 (melanoma cell line G-361; 72 hours) | IC50 [7] | Activity (%); (s.d.) [8] | Concentration with highest activity (mol/l) [8] | IC50 ([9]; 72 hours) | IC50 ([10]; 72 hours) | IC50 [11] | other results
OCCCNc1nc2c(NCc3ccco3)ncnc2n1C1CCCCO1 (centres unmarked) [Compound 185, 6-Furfurylamino-8-(3-hydroxypropylamino)-9-(tetrahydropyran-2-yl)-9H-purine] | 48.3 ± 2.3 | 10.2 (±1.1) nmol/g FW |  |  |  |  |  |  |  |  |  |  | 
c1coc(CNc2ncnc3c2ncn3C2CCCCO2)c1 (centres unmarked) [KTHP, kinetin-9-tetrahydropyranyl, reference compound] | 0.6 ± 0.1 |  |  |  |  |  |  |  |  |  |  |  | SENESCENT CELLS (%) HDF25 ([3]; human diploid fibroblasts passage 25, beta-galactosidase staining): 3%; SENESCENT CELLS (%) HDF45 ([3]; human diploid fibroblasts passage 45, beta-galactosidase staining): 4%; SENESCENT CELLS (%) HDF80 ([3]; human diploid fibroblasts passage 80, beta-galactosidase staining): 26%
CC(C)=CCNc1ncnc2c1nc(NCCN)n2C1CCCCO1 (centres unmarked) [Compound 172, 8-(2-Aminoethylamino)-6-(3-methylbut-2-en-1-ylamino)-9-(tetrahydropyran-2-yl)-9H-purine] | 28.3 ± 1.6 | 10.8 (±0.9) nmol/g FW |  |  |  |  |  |  |  |  |  |  | 
Oc1cccc(CNc2ncnc3c2nc(Cl)n3C2CCCCO2)c1 (centres unmarked) [Compound 9] |  | 12.4 (±1.3) nmol/g FW | 115 (±4) % | >100 µM | > 50 µmol/L | > 50 µmol/L | > 50 µmol/L | 108 (±3) % | 10^−6-10^−4 mol/l | > 50 µmol/L | > 50 µmol/L | > 50 µmol/L | 
CN(C)c1nc2c(NCc3ccco3)ncnc2n1C1CCCCO1 (centres unmarked) [Compound 80, 6-Furfurylamino-8-dimethylamino-9-(tetrahydropyran-2-yl)-9H-purine] | 2.2 ± 0.1 | 11.3 (±0.9) nmol/g FW |  |  |  |  |  |  |  |  |  |  | 
C=CCNc1nc2c(NCc3ccco3)ncnc2n1C1CCCCO1 (centres unmarked) [Compound 100, 8-Allylamino-6-furfurylamino-9-(tetrahydropyran-2-yl)-9H-purine] | 32.4 ± 3.2 | 10.2 (±1.1) nmol/g FW |  |  |  |  |  |  |  |  |  |  | 
Nc1nc2c(NCc3ccco3)ncnc2n1C1CCCCO1 (centres unmarked) [Compound 102, 6-furfurylamino-8-amino-9-(tetrahydropyran-2-yl)-9H-purine] | 4.5 ± 0.1 | 10.4 (±0.9) nmol/g FW |  |  |  |  |  |  |  |  |  |  | 
C/C(=C\CNc1ncnc2c1nc(Cl)n2C1CCCCO1)CO (centres unmarked) [Compound 5, (E)-8-Chloro-6-(4-hydroxy-3-methylbut-2-en-1-ylamino)-9-(tetrahydropyran-2-yl)-9H-purine] |  | 13.2 (±1.5) nmol/g FW | 118 (±5) % | >100 µM |  |  |  | 124 (±6) % |  |  |  |  | IC50 ([6]; Homo sapiens, Fibroblast): > 50 µmol/L; IC50 (melanoma cell line G-361; Homo sapiens, G-361, 72 hours): > 50 µmol/L; IC50 ([7]; Homo sapiens): > 50 µmol/L; IC50 ([9]; Homo sapiens, K562, 72 hours): > 50 µmol/L; IC50 ([10]; Homo sapiens, MCF7, 72 hours): > 50 µmol/L; IC50 ([11]; Homo sapiens): > 50 µmol/L
Oc1cccc(CNc2ncnc3c2nc(Br)n3C2CCCCO2)c1 (centres unmarked) [Compound 29] |  | 12.3 (±1.4) nmol/g FW | 117 (±2) % | >100 µM | > 50 µmol/L | > 50 µmol/L | > 50 µmol/L | 112 (±3) % | 10^−6-10^−4 mol/l | > 50 µmol/L | > 50 µmol/L | > 50 µmol/L | 
COc1nc2c(NCc3ccco3)ncnc2n1C1CCCO1 (centres unmarked) [Compound 206] |  | 10.5 (±0.4) nmol/g FW |  | >100 µM | > 50 µmol/L | > 50 µmol/L | > 50 µmol/L | 110 (±3) % | 10^−6-10^−4 mol/l | > 50 µmol/L | > 50 µmol/L | > 50 µmol/L | 
